# From PMC4939875 (Nature, 2016)
# Experiments:
# [1] = test system: TONSL ARD; assay: GST-histone tail pull-down with recombinant TONSL ARD; type: binding, human; conditions: GST-H3 tail (1–59), GST-H4 tail (1–31); 20 mM Tris pH 7.5, 0.5 M NaCl; SDS-PAGE
# [2] = test system: TONSL acidic stretch and ARD (a.a. 450-692); assay: ITC of TONSL acidic stretch and ARD; type: binding, human; conditions: TONSL a.a. 450-692, H3K9me1 (a.a. 1-21), 20 mM Tris pH 7.5, 0.5 M NaCl
binding of TONSL ARD to GST-histone tail [1],Substance,interaction between TONSL ARD with acidic stretch and H3K9me1 peptide [2]
binds,GST-H4 tail: GST-tagged human histone H4 fragment 1–31,–
–,H3K9me1: peptide of H3(1-21)K9me1 (mono-methylation on Lys9),unable to detect an interaction
